ChEMBL document CHEMBL3045412, “Antifungal activity and fungal metabolism of steroidal glycosides of Easter lily (Lilium longiflorum Thunb.) by the plant pathogenic fungus, Botrytis cinerea” (2011)
Calls of active or inactive are those of the source. The rule behind the calls is not given here.

Columns and labels:
Botrytis cinerea [1] = assay: Antifungal activity against Botryotinia fuckeliana assessed as radial mycelia growth inhibition at 25 degC at 100 umol relative to control (crop protection Lilium longiflorum Thunb.); format: functional
Botrytis cinerea [2] = assay: Antifungal activity against Botryotinia fuckeliana assessed as radial mycelia growth inhibition at 25 degC at 1 to 100 umol relative to control (crop protection Lilium longiflorum Thunb.); format: functional, organism-based

Compound | growth inhibition (GI) (Botrytis cinerea [1]) [%] | growth inhibition (GI) (Botrytis cinerea [2])
CC(=O)OC[C@H]1O[C@@H](O[C@H]2[C@H](O)[C@@H](O[C@@H]3O[C@@H](C)[C@H](O)[C@@H](O)[C@H]3O)[C@H](O[C@H]3CC[C@@]4(C)C(=CC[C@H]5[C@@H]6C[C@@H]7O[C@]8(CC[C@@H](C)CN8)[C@@H](C)[C@@H]7[C@@]6(C)CC[C@@H]54)C3)O[C@@H]2CO)[C@H](O)[C@@H](O)[C@@H]1O | 49 | –
C[C@H](CC[C@@]1(O)O[C@H]2C[C@H]3[C@@H]4CC=C5C[C@@H](O[C@@H]6O[C@H](CO)[C@@H](O)[C@H](O[C@@H]7OC[C@H](O)[C@H](O)[C@H]7O)[C@H]6O[C@@H]6O[C@@H](C)[C@H](O)[C@@H](O)[C@H]6O)CC[C@]5(C)[C@H]4CC[C@]3(C)[C@H]2[C@@H]1C)CO[C@@H]1O[C@H](CO)[C@@H](O)[C@H](O)[C@H]1O | 25 | –
C[C@@H]1CC[C@@]2(NC1)O[C@H]1C[C@H]3[C@@H]4CC=C5C[C@@H](O[C@@H]6O[C@H](CO)[C@@H](O[C@@H]7O[C@H](CO)[C@@H](O)[C@H](O)[C@H]7O)[C@H](O)[C@H]6O[C@@H]6O[C@@H](C)[C@H](O)[C@@H](O)[C@H]6O)CC[C@]5(C)[C@H]4CC[C@]3(C)[C@H]1[C@@H]2C | – | Active
C[C@H](CC[C@@]1(O)O[C@H]2C[C@H]3[C@@H]4CC=C5C[C@@H](O[C@@H]6O[C@H](CO)[C@@H](O[C@@H]7O[C@H](CO)[C@@H](O)[C@H](O)[C@H]7O)[C@H](O)[C@H]6O[C@@H]6O[C@@H](C)[C@H](O)[C@@H](O)[C@H]6O)CC[C@]5(C)[C@H]4CC[C@]3(C)[C@H]2[C@@H]1C)CO[C@@H]1O[C@H](CO)[C@@H](O)[C@H](O)[C@H]1O | 25 | –
C[C@H](CC[C@@]1(O)O[C@H]2C[C@H]3[C@@H]4CC=C5C[C@@H](O[C@@H]6O[C@H](CO)[C@@H](O)[C@H](O[C@@H]7OC[C@H](O)[C@@H](O)[C@@H]7O)[C@H]6O[C@@H]6O[C@@H](C)[C@H](O)[C@@H](O)[C@H]6O)CC[C@]5(C)[C@H]4CC[C@]3(C)[C@H]2[C@@H]1C)CO[C@@H]1O[C@H](CO)[C@@H](O)[C@H](O)[C@H]1O | 25 | –
